# Molecular target: T1, mutant CFTR (Homo sapiens, UniProt P13569, DEL508-508)
# T1 construct: expressed in transfected cells
# Experiment: Fluorescence (HS-YFP) assay for CFTR activity, corrector assay
# Format: cell-based
# Details: CFBE41o- and FRT cells with stable expression of mutant CFTR, 24 h compound treatment
# How it was run: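 CFBE41o- or FRT cells stably expressing mutant CFTR and HS-YFP were exposed to compounds for 24 h (corrector mode), then stimulated 30 min at 37° C with forskolin (20 μM) plus genistein (50 μM). YFP quenching after 100 mM iodide injection; initial slope from exponential fit of final 10 s; EC50 reported.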
# T1 sequence (P13569 with tags, fused parts or gaps DEL508-508): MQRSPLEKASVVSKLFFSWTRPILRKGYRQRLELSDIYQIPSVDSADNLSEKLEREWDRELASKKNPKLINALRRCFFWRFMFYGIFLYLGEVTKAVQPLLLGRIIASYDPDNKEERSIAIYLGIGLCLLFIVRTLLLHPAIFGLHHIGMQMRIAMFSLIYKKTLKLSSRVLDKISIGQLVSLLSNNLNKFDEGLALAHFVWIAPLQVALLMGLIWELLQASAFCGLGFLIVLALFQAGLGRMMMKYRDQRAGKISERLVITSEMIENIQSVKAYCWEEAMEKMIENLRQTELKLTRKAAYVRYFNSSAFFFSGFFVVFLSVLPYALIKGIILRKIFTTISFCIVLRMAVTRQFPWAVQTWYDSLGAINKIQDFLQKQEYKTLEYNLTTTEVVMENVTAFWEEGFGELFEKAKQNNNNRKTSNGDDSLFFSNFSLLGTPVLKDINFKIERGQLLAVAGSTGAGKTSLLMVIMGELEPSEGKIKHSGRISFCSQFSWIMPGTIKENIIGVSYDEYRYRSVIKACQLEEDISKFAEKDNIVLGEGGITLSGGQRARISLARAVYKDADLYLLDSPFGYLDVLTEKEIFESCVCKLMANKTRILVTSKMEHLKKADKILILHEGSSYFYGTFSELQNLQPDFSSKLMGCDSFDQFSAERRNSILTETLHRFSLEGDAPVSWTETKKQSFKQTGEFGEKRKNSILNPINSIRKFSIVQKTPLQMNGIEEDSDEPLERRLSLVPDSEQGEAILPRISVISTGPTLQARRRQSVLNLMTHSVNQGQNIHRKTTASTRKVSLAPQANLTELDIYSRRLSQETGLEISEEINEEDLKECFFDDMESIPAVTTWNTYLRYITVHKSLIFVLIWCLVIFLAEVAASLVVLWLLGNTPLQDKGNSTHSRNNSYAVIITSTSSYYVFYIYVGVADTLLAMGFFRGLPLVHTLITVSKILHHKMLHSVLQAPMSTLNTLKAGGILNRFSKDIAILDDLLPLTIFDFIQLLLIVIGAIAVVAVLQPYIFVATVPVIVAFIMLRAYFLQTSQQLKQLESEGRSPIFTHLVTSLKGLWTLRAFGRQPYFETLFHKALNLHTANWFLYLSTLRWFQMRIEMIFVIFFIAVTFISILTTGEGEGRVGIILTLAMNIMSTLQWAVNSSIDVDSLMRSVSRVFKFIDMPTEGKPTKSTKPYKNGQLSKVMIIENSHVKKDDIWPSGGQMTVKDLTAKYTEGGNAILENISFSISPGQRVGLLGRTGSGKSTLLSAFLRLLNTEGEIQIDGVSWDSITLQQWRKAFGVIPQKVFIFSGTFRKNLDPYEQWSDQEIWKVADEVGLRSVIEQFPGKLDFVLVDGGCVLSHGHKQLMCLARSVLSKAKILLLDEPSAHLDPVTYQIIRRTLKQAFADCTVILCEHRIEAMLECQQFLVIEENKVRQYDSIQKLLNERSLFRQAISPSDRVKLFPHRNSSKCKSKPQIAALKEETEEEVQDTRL
row,Compound,EC50 [µM]
1,"CN(C(=O)c1cccc(-n2nc(C(F)(F)F)c(C#N)c2COc2ccc(C(=O)O)cc2)c1)c1ccc2c(c1)OC(F)(F)O2 [compound 224, 4-[[4-Cyano-2-[3-[(2,2-difluoro-1,3-benzodioxol-5-yl)-methyl-carbamoyl]phenyl]-5-(trifluoromethyl)pyrazol-3-yl]methoxy]benzoic acid]",< 1
2,"CN(C(=O)c1cccc(-n2nc(C(F)(F)F)c(Cl)c2COc2cnc(C(=O)O)cn2)c1)c1ccc2c(c1)OC(F)(F)O2 [compound 226, 5-[[4-Chloro-2-[3-[(2,2-difluoro-1,3-benzodioxol-5-yl)-methyl-carbamoyl]phenyl]-5-(trifluoromethyl)pyrazol-3-yl]methoxy]pyrazine-2-carboxylic acid]",< 1
3,"CN(C(=O)c1cccc(-n2nc(C(F)(F)F)c(Cl)c2CO[C@H]2CC[C@H](C(=O)O)CC2)c1)c1ccc2c(c1)OC(F)(F)O2 [compound 228, Trans-4-[[4-chloro-2-[3-[(2,2-difluoro-1,3-benzodioxol-5-yl)-methyl-carbamoyl]phenyl]-5-(trifluoromethyl)pyrazol-3-yl]methoxy]cyclohexanecarboxylic acid]",< 1
4,"Cc1nc2ccc(N(C)C(=O)c3cccc(-n4nc(C(F)(F)F)c(Cl)c4COc4ccc(C(=O)O)cc4)c3)cc2o1 [compound 233, 4-[[4-Chloro-2-[3-[methyl-(2-methyl-1,3-benzoxazol-6-yl)carbamoyl]phenyl]-5-(trifluoromethyl)pyrazol-3-yl]methoxy]benzoic acid]",< 1
5,"Cc1nc2cc(F)c(N(C)C(=O)c3cccc(-n4nc(C(F)(F)F)c(Cl)c4COc4ccc(C(=O)O)cc4)c3)cc2o1 [compound 234, 4-[[4-Chloro-2-[3-[(5-fluoro-2-methyl-1,3-benzoxazol-6-yl)-methyl-carbamoyl]phenyl]-5-(trifluoromethyl)pyrazol-3-yl]methoxy]benzoic acid]",< 1
6,"Cc1nc2ccc(N(C)C(=O)c3cccc(-n4nc(C(F)(F)F)c(Cl)c4COc4ccc(C(=O)O)cc4)c3)cn2n1 [compound 236, 4-[[4-Chloro-2-[3-[methyl-(2-methyl-[1,2,4]triazolo[1,5-a]pyridin-6-yl)carbamoyl]phenyl]-5-(trifluoromethyl)pyrazol-3-yl]methoxy]benzoic acid]",< 1
7,"Cc1cc2ncc(N(C)C(=O)c3cccc(-n4nc(C(F)(F)F)c(Cl)c4COc4ccc(C(=O)O)cc4)c3)cn2n1 [compound 238, 4-[[4-Chloro-2-[3-[methyl-(2-methylpyrazolo[1,5-a]pyrimidin-6-yl)carbamoyl]phenyl]-5-(trifluoromethyl)pyrazol-3-yl]methoxy]benzoic acid]",1 to 2
8,"Cc1cc2cc(N(C)C(=O)c3cccc(-n4nc(C(F)(F)F)c(Cl)c4COc4ccc(C(=O)O)cc4)c3)ccn2n1 [compound 239, 4-[[4-Chloro-2-[3-[methyl-(2-methylpyrazolo[1,5-a]pyridin-5-yl)carbamoyl]phenyl]-5-(trifluoromethyl)pyrazol-3-yl]methoxy]benzoic acid]",< 1
9,"Cc1noc2cc(N(C)C(=O)c3cccc(-n4nc(C(F)(F)F)c(Cl)c4COc4ccc(C(=O)O)cc4)c3)ccc12 [compound 245, 4-[[4-Chloro-2-[3-[methyl-(3-methyl-1,2-benzoxazol-6-yl)carbamoyl]phenyl]-5-(trifluoromethyl)pyrazol-3-yl]methoxy]benzoic acid]",< 1
10,"COC(=O)C12CC(COc3cc(C(F)(F)F)nn3-c3cccc(C(=O)N(C)c4ccc5c(c4)OC(F)(F)O5)c3)(C1)C2 [compound 254, Methyl 3-[[2-[3-[(2,2-difluoro-1,3-benzodioxol-5-yl)-methyl-carbamoyl]phenyl]-5-(trifluoromethyl)pyrazol-3-yl]oxymethyl]bicyclo[1.1.1]pentane-1-carboxylate]",< 1
11,"CN(C(=O)c1cccc(-n2nc(C(F)(F)F)cc2OCC23CC(C(=O)O)(C2)C3)c1)c1ccc2c(c1)OC(F)(F)O2 [compound 255, 3-[[2-[3-[(2,2-Difluoro-1,3-benzodioxol-5-yl)-methyl-carbamoyl]phenyl]-5-(trifluoromethyl)pyrazol-3-yl]oxymethyl]bicyclo[1.1.1]pentane-1-carboxylic acid]",< 1
12,"Cc1cn2cc(N(C)C(=O)c3cccc(-n4nc(C(F)(F)F)c(Cl)c4COc4ccc(C(=O)O)cc4)c3)ccc2n1 [compound 256, 4-[[4-Chloro-2-[3-[methyl-(2-methylimidazo[1,2-a]pyridin-6-yl)carbamoyl]phenyl]-5-(trifluoromethyl)pyrazol-3-yl]methoxy]benzoic acid]",< 1
13,"CN(C(=O)c1cccc(-n2nc(C(F)(F)F)c(Cl)c2COC2CC(C(=O)O)C2)c1)c1ccc2c(c1)OC(F)(F)O2 (stereo not drawn) [compound 257, 3-[[4-Chloro-2-[3-[(2,2-difluoro-1,3-benzodioxol-5-yl)-methyl-carbamoyl]phenyl]-5-(trifluoromethyl)pyrazol-3-yl]methoxy]cyclobutanecarboxylic acid]",< 1
14,"CN(C(=O)c1cccc(-n2nc(C(F)(F)F)c(Cl)c2OCC23CC(C(=O)O)(C2)C3)c1)c1ccc2c(c1)OC(F)(F)O2 [compound 258, 3-[[4-Chloro-2-[3-[(2,2-difluoro-1,3-benzodioxol-5-yl)-methyl-carbamoyl]phenyl]-5-(trifluoromethyl)pyrazol-3-yl]oxymethyl]bicyclo[1.1.1]pentane-1-carboxylic acid]",< 1
15,"CN(C(=O)c1cccc(-n2nc(C(F)(F)F)c(C#N)c2COc2ccc(C(=O)OC(C)(C)C)cc2)c1)c1ccc2c(c1)OC(F)(F)O2 [compound 259, Tert-butyl 4-[[4-cyano-2-[3-[(2,2-difluoro-1,3-benzodioxol-5-yl)-methyl-carbamoyl]phenyl]-5-(trifluoromethyl)pyrazol-3-yl]methoxy]benzoate]",< 1
16,"CCOC(=O)CCC(=O)N1CCC(Oc2cc(C(F)(F)F)nn2-c2cccc(C(=O)N(C)c3ccc4c(c3)OC(F)(F)O4)c2)CC1 [compound 260, Ethyl 4-[4-[2-[3-[(2,2-difluoro-1,3-benzodioxol-5-yl)-methyl-carbamoyl]phenyl]-5-(trifluoromethyl)pyrazol-3-yl]oxy-1-piperidyl]-4-oxo-butanoate]",< 1
17,"Cc1nc2ncc(N(C)C(=O)c3cccc(-n4nc(C(F)(F)F)c(Cl)c4C)c3)cc2o1 [compound 261, 3-[4-Chloro-5-methyl-3-(trifluoromethyl)pyrazol-1-yl]-N-methyl-N-(2-methyloxazolo[4,5-b]pyridin-6-yl)benzamide]",1 to 2
18,"CN(C(=O)c1cccc(-n2nc(C(F)(F)F)cc2OCc2ccc(C(=O)O)cc2)c1)c1ccc2c(c1)OCC2 [compound 262, 4-[[2-[3-[2,3-Dihydrobenzofuran-6-yl(methyl)carbamoyl]phenyl]-5-(trifluoromethyl)pyrazol-3-yl]oxymethyl]benzoic acid]",< 1
19,"Cc1noc2cc(N(C)C(=O)c3cccc(-n4nc(C(F)(F)F)cc4OCc4ccc(C(=O)O)cc4)c3)ccc12 [compound 263, 4-[[2-[3-[Methyl-(3-methyl-1,2-benzoxazol-6-yl)carbamoyl]phenyl]-5-(trifluoromethyl)pyrazol-3-yl]oxymethyl]benzoic acid]",> 2
20,"CN(C(=O)c1cccc(-n2nc(C(F)(F)F)cc2OC2CCN(C(=O)CCC(=O)O)CC2)c1)c1ccc2c(c1)OC(F)(F)O2 [compound 264, 4-[4-[2-[3-[(2,2-Difluoro-1,3-benzodioxol-5-yl)-methyl-carbamoyl]phenyl]-5-(trifluoromethyl)pyrazol-3-yl]oxy-1-piperidyl]-4-oxo-butanoic acid]",1 to 2
21,"CN(C(=O)c1cccc(-n2nc(C(F)(F)F)cc2OCC2(C(=O)O)CC2)c1)c1ccc2c(c1)OC(F)(F)O2 [compound 265, 1-[[2-[3-[(2,2-Difluoro-1,3-benzodioxol-5-yl)-methyl-carbamoyl]phenyl]-5-(trifluoromethyl)pyrazol-3-yl]oxymethyl]cyclopropanecarboxylic acid]",> 2
22,"CN(C(=O)c1cccc(-n2nc(C(F)(F)F)c(Cl)c2COc2ccc(C(=O)O)cc2)c1)c1cnc2c(c1)OCO2 [compound 267, 4-[[4-Chloro-2-[3-[[1,3]dioxolo[4,5-b]pyridin-6-yl (methyl)carbamoyl]phenyl]-5-(trifluoromethyl)pyrazol-3-yl]methoxy]benzoic acid]",< 1
23,"CN(C(=O)c1cccc(-n2nc(C(F)F)c(C#N)c2COc2ccc(C(=O)O)cc2)c1)c1ccc2c(c1)OC(F)(F)O2 [compound 268, 4-[[4-cyano-2-[3-[(2,2-difluoro-1,3-benzodioxol-5-yl)-methyl-carbamoyl]phenyl]-5-(difluoromethyl)pyrazol-3-yl]methoxy]benzoic acid]",< 1
24,"Cc1c(N(C)C(=O)c2cccc(-n3nc(C(F)(F)F)c(Cl)c3C)c2)ccc2c1OCO2 [compound 269, 3-[4-chloro-5-methyl-3-(trifluoromethyl)pyrazol-1-yl]-N-methyl-N-(4-methyl-1,3-benzodioxol-5-yl)benzamide]",> 2
